PubChem BioAssay (NCI)
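These data come from cells grown in 96-well plates and exposed to compound for 48 hours at five concentrations. TGI: concentration producing complete growth inhibition.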

How the values were obtained:
Assay in all cases: NCI anticancer screen, dose series, 48 h
UO-31 renal = test system: UO-31 renal
HCT-116 colon = test system: HCT-116 colon
UACC-62 melanoma = test system: UACC-62 melanoma
T-47D breast = test system: T-47D breast
K-562 leukemia = test system: K-562 leukemia
SN12C renal = test system: SN12C renal
IGROV1 ovarian = test system: IGROV1 ovarian
UACC-257 melanoma = test system: UACC-257 melanoma
MDA-N = test system: MDA-N

O=C(O)c1nn(-c2ccccc2)nc1-c1nn(-c2ccccc2)nc1C(=O)O
TGI (UO-31 renal): > 100 µM
TGI (HCT-116 colon): > 100 µM
TGI (UACC-62 melanoma): > 100 µM
TGI (T-47D breast): > 100 µM
TGI (K-562 leukemia): > 100 µM
TGI (SN12C renal): > 100 µM
TGI (IGROV1 ovarian): > 100 µM
TGI (UACC-257 melanoma): > 100 µM
TGI (MDA-N): > 100 µM

Cc1nc2ccc(NC3OCC(O)C(O)C3O)cc2c(=O)n1-c1ccccc1 (configuration not stated)
TGI (UO-31 renal): > 100 µM
TGI (HCT-116 colon): > 100 µM
TGI (UACC-62 melanoma): > 100 µM
TGI (T-47D breast): > 100 µM
TGI (K-562 leukemia): > 100 µM
TGI (SN12C renal): > 100 µM
TGI (IGROV1 ovarian): > 100 µM
TGI (UACC-257 melanoma): > 100 µM
TGI (MDA-N): > 100 µM

COC(=O)C12Oc3ccc(-c4ccc5c(c4O)C(O)=C4C(=O)CC(C)C(O)C4(C(=O)OC)O5)c(O)c3C(O)=C1C(=O)CC(C)C2O (configuration not stated)
TGI (UO-31 renal): 0.858 µM
TGI (UACC-62 melanoma): 1.37 µM
TGI (T-47D breast): > 29.1 µM
TGI (K-562 leukemia): > 100 µM
TGI (SN12C renal): > 100 µM
TGI (IGROV1 ovarian): > 100 µM
TGI (UACC-257 melanoma): 1.34 µM
TGI (MDA-N): > 100 µM

COc1ccc(C2=NNC(=O)c3ccccc3N2c2nc(-c3cccs3)nc3cc(OC)c(OC)cc23)cc1
TGI (UO-31 renal): 25 µM
TGI (HCT-116 colon): > 100 µM
TGI (UACC-62 melanoma): 5.79 µM
TGI (T-47D breast): 17.6 µM
TGI (K-562 leukemia): > 100 µM
TGI (SN12C renal): 11.1 µM
TGI (IGROV1 ovarian): > 100 µM
TGI (UACC-257 melanoma): 88.2 µM

CSc1nc(NCc2ccccc2)c2cnn(COCCO)c2n1
TGI (UO-31 renal): > 100 µM
TGI (HCT-116 colon): > 100 µM
TGI (UACC-62 melanoma): > 100 µM
TGI (T-47D breast): > 100 µM
TGI (K-562 leukemia): > 100 µM
TGI (SN12C renal): > 100 µM
TGI (IGROV1 ovarian): > 100 µM
TGI (UACC-257 melanoma): 64 µM
TGI (MDA-N): > 100 µM

CC(NNC(=O)c1ccncc1)c1cccc(C(F)(F)F)c1 (configuration not stated)
TGI (UO-31 renal): > 100 µM
TGI (HCT-116 colon): > 100 µM
TGI (UACC-62 melanoma): > 100 µM
TGI (T-47D breast): > 100 µM
TGI (K-562 leukemia): > 100 µM
TGI (SN12C renal): > 100 µM
TGI (IGROV1 ovarian): > 100 µM
TGI (UACC-257 melanoma): > 100 µM
TGI (MDA-N): > 100 µM

COc1cc(/C=C/C(=N\NC(N)=S)c2sc(NNC(C)=O)nc2C)ccc1O
TGI (UO-31 renal): > 100 µM
TGI (HCT-116 colon): > 100 µM
TGI (UACC-62 melanoma): > 100 µM
TGI (T-47D breast): > 100 µM
TGI (K-562 leukemia): > 100 µM
TGI (SN12C renal): > 100 µM
TGI (IGROV1 ovarian): > 100 µM
TGI (UACC-257 melanoma): > 100 µM
TGI (MDA-N): > 100 µM

C(=C/c1nnnn1-c1ccccc1)/Nc1ccccc1
TGI (UO-31 renal): 65.9 µM
TGI (HCT-116 colon): 95.7 µM
TGI (UACC-62 melanoma): > 100 µM
TGI (T-47D breast): > 100 µM
TGI (K-562 leukemia): > 100 µM
TGI (SN12C renal): > 100 µM
TGI (IGROV1 ovarian): > 100 µM
TGI (UACC-257 melanoma): > 100 µM
TGI (MDA-N): 70.4 µM

CCN(C(=O)N[C@H](C(=O)N[C@@H](CSC)C(=O)N[C@@H](C)C(=O)OC)C(C)C)c1ccccc1
TGI (UO-31 renal): 31.3 µM
TGI (HCT-116 colon): 30.9 µM
TGI (UACC-62 melanoma): 27 µM
TGI (T-47D breast): 76.3 µM
TGI (K-562 leukemia): > 100 µM
TGI (SN12C renal): 43.1 µM
TGI (IGROV1 ovarian): 23.9 µM
TGI (UACC-257 melanoma): 25 µM
TGI (MDA-N): 36.2 µM

C=C1CCOC2(C(O)C(C)(O)CO)NC(=O)C1(O)NC2=O (configuration not stated)
TGI (UO-31 renal): > 100 µM
TGI (HCT-116 colon): > 100 µM
TGI (UACC-62 melanoma): > 100 µM
TGI (T-47D breast): > 100 µM
TGI (K-562 leukemia): > 100 µM
TGI (SN12C renal): > 100 µM
TGI (IGROV1 ovarian): > 100 µM
TGI (UACC-257 melanoma): > 100 µM
TGI (MDA-N): > 100 µM

Cn1cc2c3ccccc3nc-2c2ccccc21
TGI (UO-31 renal): 2.92 µM
TGI (HCT-116 colon): 3.2 µM
TGI (UACC-62 melanoma): 3.15 µM
TGI (T-47D breast): 5.87 µM
TGI (K-562 leukemia): 9.65 µM
TGI (SN12C renal): 4.89 µM
TGI (UACC-257 melanoma): 5.85 µM
TGI (MDA-N): 5.95 µM

Cc1cc(C)c2c(n1)S(=O)(=O)N(CCCN1CCN(c3cccc(Cl)c3)CC1)/C(=C(\O)c1ccc(Br)cc1)C2=O
TGI (UO-31 renal): 48.9 µM
TGI (HCT-116 colon): 52 µM
TGI (UACC-62 melanoma): > 100 µM
TGI (T-47D breast): > 100 µM
TGI (K-562 leukemia): > 100 µM
TGI (SN12C renal): 53.2 µM
TGI (IGROV1 ovarian): > 100 µM
TGI (UACC-257 melanoma): 45.3 µM

C/C(=N\NC(N)=S)c1nc2ncccc2[nH]1
TGI (UO-31 renal): 82.1 µM
TGI (HCT-116 colon): > 100 µM
TGI (UACC-62 melanoma): > 100 µM
TGI (T-47D breast): > 100 µM
TGI (K-562 leukemia): > 100 µM
TGI (SN12C renal): > 100 µM
TGI (IGROV1 ovarian): > 100 µM
TGI (UACC-257 melanoma): > 100 µM
TGI (MDA-N): > 100 µM

COc1ccc(Nc2nc(N)c(C(=O)c3ccc(Cl)cc3)s2)cc1
TGI (UO-31 renal): 16 µM
TGI (HCT-116 colon): 6.64 µM
TGI (UACC-62 melanoma): > 94.5 µM
TGI (T-47D breast): > 100 µM
TGI (K-562 leukemia): > 100 µM
TGI (SN12C renal): 22.3 µM
TGI (IGROV1 ovarian): 17.7 µM
TGI (UACC-257 melanoma): > 100 µM

CCCCCCCCCCCCOC1C(COCCN2CCCCC2)OC2OC(C)(C)OC21 (configuration not stated)
TGI (UO-31 renal): 3.22 µM
TGI (HCT-116 colon): 3.07 µM
TGI (UACC-62 melanoma): 3.27 µM
TGI (T-47D breast): 4.01 µM
TGI (SN12C renal): 4.72 µM
TGI (IGROV1 ovarian): 3.26 µM
TGI (UACC-257 melanoma): 3.18 µM
TGI (MDA-N): 2.9 µM

COc1cc2c[n+](C)c3c4cc(OC)c(OCc5ccccc5)cc4c(OCc4ccccc4)cc3c2cc1OC
TGI (UO-31 renal): > 100 µM
TGI (HCT-116 colon): 22 µM
TGI (UACC-62 melanoma): 10.4 µM
TGI (T-47D breast): 21.6 µM
TGI (K-562 leukemia): > 25 µM
TGI (SN12C renal): 33.2 µM
TGI (IGROV1 ovarian): 13.2 µM
TGI (UACC-257 melanoma): 14.4 µM
TGI (MDA-N): 12 µM

Cc1ccc(S(=O)(=O)N(CCNC(=O)c2cccc(O)c2O)c2cc3c4c(c2)Oc2cccc5c2C4(C)c2c(cccc2O3)O5)cc1
TGI (UO-31 renal): > 100 µM
TGI (HCT-116 colon): > 100 µM
TGI (UACC-62 melanoma): > 100 µM
TGI (T-47D breast): > 100 µM
TGI (K-562 leukemia): > 100 µM
TGI (SN12C renal): > 100 µM
TGI (IGROV1 ovarian): > 100 µM
TGI (UACC-257 melanoma): > 100 µM
TGI (MDA-N): > 100 µM

C=CCOC(=O)Cn1ccc(=O)[nH]c1=O
TGI (UO-31 renal): > 100 µM
TGI (HCT-116 colon): > 100 µM
TGI (UACC-62 melanoma): > 100 µM
TGI (T-47D breast): > 100 µM
TGI (K-562 leukemia): > 100 µM
TGI (SN12C renal): > 100 µM
TGI (IGROV1 ovarian): > 100 µM
TGI (UACC-257 melanoma): > 100 µM
TGI (MDA-N): > 100 µM

COc1ccc2[nH]c3c(c2c1)CC(=O)N1CCC[C@H](C1)CC31OCCCO1
TGI (UO-31 renal): > 100 µM
TGI (HCT-116 colon): > 100 µM
TGI (UACC-62 melanoma): > 100 µM
TGI (T-47D breast): > 100 µM
TGI (SN12C renal): > 100 µM
TGI (IGROV1 ovarian): > 100 µM
TGI (UACC-257 melanoma): > 100 µM
TGI (MDA-N): > 100 µM

CSc1ncc2c(n1)-c1ccccc1OC2
TGI (UO-31 renal): > 100 µM
TGI (HCT-116 colon): > 100 µM
TGI (UACC-62 melanoma): > 100 µM
TGI (T-47D breast): 62.5 µM
TGI (SN12C renal): > 100 µM
TGI (IGROV1 ovarian): > 100 µM
TGI (UACC-257 melanoma): > 100 µM
TGI (MDA-N): > 100 µM

COC(=O)c1c(O)ccc2c1c1c(n2Cc2cccc(C)c2)C(=O)c2ccccc2C1
TGI (UO-31 renal): > 75 µM
TGI (HCT-116 colon): 16.7 µM
TGI (UACC-62 melanoma): > 75 µM
TGI (T-47D breast): 32.7 µM
TGI (K-562 leukemia): > 75 µM
TGI (SN12C renal): 27.6 µM
TGI (IGROV1 ovarian): > 75 µM
TGI (UACC-257 melanoma): > 75 µM

O=c1[nH]c2ccc(CC(=S)N3CCOCC3)cc2o1
TGI (HCT-116 colon): > 100 µM
TGI (UACC-62 melanoma): > 100 µM
TGI (IGROV1 ovarian): > 100 µM
TGI (UACC-257 melanoma): > 100 µM

CCOC(=O)N1CCC2(CC1)C[C@@](C(C)=O)(c1ccccc1)C(C)O2 (some centres not stated)
TGI (UO-31 renal): > 100 µM
TGI (UACC-62 melanoma): > 100 µM
TGI (T-47D breast): 91.4 µM
TGI (K-562 leukemia): > 100 µM
TGI (IGROV1 ovarian): > 100 µM
TGI (UACC-257 melanoma): > 100 µM
TGI (MDA-N): > 100 µM

COc1ccc(-c2cc(-c3ccc(Nc4ccnc5cc(Cl)ccc45)cc3)[nH]c(=O)c2C#N)cc1
TGI (UO-31 renal): > 100 µM
TGI (HCT-116 colon): > 100 µM
TGI (UACC-62 melanoma): > 100 µM
TGI (T-47D breast): > 100 µM
TGI (K-562 leukemia): > 100 µM
TGI (IGROV1 ovarian): > 100 µM
